Experimental data taken from patent publication US6342213B1, “Methods for treating non-suturable wounds by use of cyanoacrylate adhesives” (MedLogic Global Corporation, priority 1992, dated 2002).

Assays:
human skin tissue = experiment: Bonding of human skin tissue, histotoxicity/cytotoxicity
[1] = used as suture supplements or internally; site of application; cited from earlier work

In the case of `C=C(C#N)C(=O)OCCCC` [n-butyl cyanoacrylate, n-butyl-2-cyanoacrylate], the “Histotoxicity or cytotoxicity on bonding human skin tissue” value (human skin tissue) is given as “without causing histoxicity or cytotoxicity” and the “Time after application at which polymeric residue was still observed by histological examination” value [1] is given as ≤ 12 months.
